Measurements published in the NIST ThermoML archive (doi:10.1016/j.jct.2008.05.005).

Assay: xn = mol fraction of the nth substance listed
Details: Liquid, Vibrating tube method

CCCCn1cc[n+](C)c1.F[B-](F)(F)F [1-butyl-3-methylimidazolium tetrafluoroborate] + CO
mass density [kg/m3]
Details | 348.15 K | 373.15 K
620 kPa, x1 = 0.0433 | – | 797.86
620 kPa, x1 = 0.9102 | – | 1149.53
680 kPa, x1 = 0.0087 | – | 731.31
840 kPa, x1 = 0.1302 | – | 910.67
840 kPa, x1 = 0.7501 | – | 1131.82
880 kPa, x1 = 0.4988 | – | 1088.22
960 kPa, x1 = 0.2626 | – | 1006.13
5010 kPa, x1 = 0.7501 | – | 1134.65
5320 kPa, x1 = 0.2626 | – | 1009.96
5410 kPa, x1 = 0.0087 | – | 738.04
5410 kPa, x1 = 0.9102 | – | 1152.54
5450 kPa, x1 = 0.1302 | – | 915.31
5470 kPa, x1 = 0.4988 | – | 1091.64
5500 kPa, x1 = 0.0433 | – | 804.09
10030 kPa, x1 = 0.9102 | – | 1155.38
10070 kPa, x1 = 0.2626 | – | 1014.1
10080 kPa, x1 = 0.4988 | – | 1095
10280 kPa, x1 = 0.1302 | – | 919.98
10320 kPa, x1 = 0.7501 | – | 1138.17
10390 kPa, x1 = 0.0087 | – | 744.76
10780 kPa, x1 = 0.0433 | – | 810.45
15090 kPa, x1 = 0.7501 | – | 1141.24
15170 kPa, x1 = 0.1302 | – | 924.53
15230 kPa, x1 = 0.2626 | – | 1018.44
15390 kPa, x1 = 0.0433 | – | 815.67
15430 kPa, x1 = 0.4988 | – | 1098.81
15450 kPa, x1 = 0.0087 | – | 751.2
15720 kPa, x1 = 0.9102 | – | 1158.79
20090 kPa, x1 = 0.2626 | – | 1022.37
20140 kPa, x1 = 0.9102 | 1177.87 | –
20210 kPa, x1 = 0.0433 | – | 820.81
20370 kPa, x1 = 0.1302 | 949.49 | –
20420 kPa, x1 = 0.1302 | – | 929.19
20420 kPa, x1 = 0.2626 | 1040.92 | –
20420 kPa, x1 = 0.7501 | – | 1144.57
20440 kPa, x1 = 0.0087 | 779.62 | –
20580 kPa, x1 = 0.0087 | – | 757.35
20610 kPa, x1 = 0.4988 | – | 1102.41
20610 kPa, x1 = 0.9102 | – | 1161.64
24990 kPa, x1 = 0.0433 | – | 825.57
25080 kPa, x1 = 0.7501 | – | 1147.41
25180 kPa, x1 = 0.0433 | 846.4 | –
25270 kPa, x1 = 0.1302 | 953.3 | –
25310 kPa, x1 = 0.2626 | 1044.36 | –
25310 kPa, x1 = 0.4988 | 1122.86 | –
25320 kPa, x1 = 0.0087 | 784.47 | –
25330 kPa, x1 = 0.1302 | – | 933.36
25340 kPa, x1 = 0.2626 | – | 1026.45
25340 kPa, x1 = 0.4988 | – | 1105.63
25580 kPa, x1 = 0.0087 | – | 762.96
25620 kPa, x1 = 0.7501 | 1164.19 | –
25620 kPa, x1 = 0.9102 | 1180.73 | –
25830 kPa, x1 = 0.9102 | – | 1164.62
29810 kPa, x1 = 0.1302 | – | 936.98
30070 kPa, x1 = 0.7501 | 1166.56 | –
30080 kPa, x1 = 0.2626 | – | 1029.97
30080 kPa, x1 = 0.4988 | – | 1108.78
30090 kPa, x1 = 0.4988 | 1125.66 | –
30140 kPa, x1 = 0.9102 | 1183.03 | 1167.01
30150 kPa, x1 = 0.0087 | 789.02 | –
30160 kPa, x1 = 0.0433 | 850.67 | –
30210 kPa, x1 = 0.2626 | 1047.7 | –
30410 kPa, x1 = 0.7501 | – | 1150.55
30560 kPa, x1 = 0.1302 | 957.16 | –
35010 kPa, x1 = 0.7501 | 1169.13 | –
35080 kPa, x1 = 0.2626 | 1050.92 | –
35120 kPa, x1 = 0.0087 | 793.42 | –
35260 kPa, x1 = 0.4988 | 1128.6 | –
35420 kPa, x1 = 0.1302 | 960.46 | –
35740 kPa, x1 = 0.0433 | 855.14 | –
35740 kPa, x1 = 0.9102 | 1185.8 | –
39640 kPa, x1 = 0.0087 | 797.19 | –
39720 kPa, x1 = 0.1302 | 963.19 | –
39920 kPa, x1 = 0.2626 | 1054.02 | –
39920 kPa, x1 = 0.4988 | 1131.18 | –
39980 kPa, x1 = 0.9102 | 1187.84 | –
39990 kPa, x1 = 0.7501 | 1171.65 | –
40010 kPa, x1 = 0.0433 | 858.32 | –
